Measured values reported in patent US20150218141A1, “SUBSTITUTED CARBAMATE COMPOUNDS” (HOFFMANN-LA ROCHE INC, priority 2012, published 2015).
Counter-ions that a name gives are not always drawn.

target: T1, hTRPA1 (Homo sapiens, UniProt O75762); test: IC50 determination, dose response calcium flux (FLIPR) assay, ChanTest hTRPA1-CHO stably transfected cell line; format: cell-based; details: CHO-K1 Tet-On hTRPA1 cells, 30' preincubation, agonist cinnamaldehyde final 100 uM
T1 construct: host or cells: CHO-K1 Tet-On, Clone 20 (Chinese Hamster Ovary cells, inducible expression)
T1 sequence (O75762 whole entry): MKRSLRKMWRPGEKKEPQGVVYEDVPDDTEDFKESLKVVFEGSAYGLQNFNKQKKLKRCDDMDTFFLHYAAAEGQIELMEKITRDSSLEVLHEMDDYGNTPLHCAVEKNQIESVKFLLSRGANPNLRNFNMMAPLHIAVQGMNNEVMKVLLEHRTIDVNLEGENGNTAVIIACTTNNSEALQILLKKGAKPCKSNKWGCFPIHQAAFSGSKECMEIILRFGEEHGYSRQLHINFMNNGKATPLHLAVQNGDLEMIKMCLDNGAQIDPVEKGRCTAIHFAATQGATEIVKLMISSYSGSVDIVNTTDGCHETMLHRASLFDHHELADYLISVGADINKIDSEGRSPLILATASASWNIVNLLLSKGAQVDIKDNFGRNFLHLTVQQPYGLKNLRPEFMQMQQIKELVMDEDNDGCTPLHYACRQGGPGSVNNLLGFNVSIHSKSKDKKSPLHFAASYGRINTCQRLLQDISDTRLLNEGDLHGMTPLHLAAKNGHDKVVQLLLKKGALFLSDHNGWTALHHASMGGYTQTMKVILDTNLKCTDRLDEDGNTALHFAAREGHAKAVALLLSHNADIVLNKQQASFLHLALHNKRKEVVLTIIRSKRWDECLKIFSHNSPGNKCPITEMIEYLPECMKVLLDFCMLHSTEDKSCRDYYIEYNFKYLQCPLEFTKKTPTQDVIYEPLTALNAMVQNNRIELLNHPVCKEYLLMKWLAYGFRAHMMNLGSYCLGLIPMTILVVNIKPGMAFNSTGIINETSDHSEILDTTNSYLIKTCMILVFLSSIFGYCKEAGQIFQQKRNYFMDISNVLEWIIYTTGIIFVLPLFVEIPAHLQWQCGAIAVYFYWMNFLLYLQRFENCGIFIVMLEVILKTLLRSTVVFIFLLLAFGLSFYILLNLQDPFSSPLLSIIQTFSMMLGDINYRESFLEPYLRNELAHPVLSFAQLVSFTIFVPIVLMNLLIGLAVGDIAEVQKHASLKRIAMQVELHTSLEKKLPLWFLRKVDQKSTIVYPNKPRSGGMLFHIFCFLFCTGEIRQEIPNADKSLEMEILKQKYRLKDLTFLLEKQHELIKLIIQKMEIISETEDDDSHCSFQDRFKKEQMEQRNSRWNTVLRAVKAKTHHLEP
Protocol: IC50 Determination of Exemplified Compounds Dose Response Assay: ChanTest hTRPA1-CHO Stably Transfected Cell Line
CHO-K1 Tet-On_HOMSA_TRPA1_Clone—20
Growth Media for CHO-K1 Tet-On_HOMSA_TRPA1_Clone—20 • Ham's F-12 with 10% tetracycline-free FBS • 1× penicillin-streptomycin • 1× glutamax • 0.01 mg/ml Blasticidin • 0.40 mg/ml Zeocin • The cell line doubling rate was ˜15 hours. […] Experiments were run at 24 hours post induction.
Plating Conditions CHOK1/TRPA1 Cells: • Harvested cells with 0.025% trypsin/EDTA. • Resuspended cells in growth media without selection antibiotics. • Measured cell density and diluted to 2.4×10^5 cells/ml in media containing 1 ug/ml Doxycycline Plate 25 ul/well into 384 well black/clear tissue culture-treated plates. • Incubated overnight at 37° C.
Reagents: • Replacement Buffer: Hank's Balanced Salt Solution, 20 mM HEPES along with 0.005% BSA and 2× Probenecid • Dye Loading Buffer: Cal-3 NW Calcium dye was prepared by dissolving the contents of one vial with […] Hank's Balanced Salt Solution containing 20 mM HEPES. • Control compounds for CHOK1/TRPA1 cells: AP-18, stock 10 mM, prepare 3.5× compound dilution in a Compound Buffer (HBSS/20 mM HEPES/0.005% BSA)—final concentration 10 uM.
Preparation of Cinnamaldehyde (Agonist Addition):
• Specific gravity=1.046 gm/cc • 1.32 gm/1.046 gm/cc=1.26 ml of stock • Add 1.74 ml DMSO=3.3 M stock • Working solution 4.5× (final 100 uM in Compound Buffer: HBSS/20 mM HEPES/0.005% BSA)
Compounds dilutions were prepared from 5 or 10 mM stock (100% DMSO): • Adjustments of volumes and concentrations were made at time of titration to reflect desired final assay concentrations. • Compounds were tested at either 20 μM three folds dilution 11 steps out or 30 μM two folds dilution 11 steps out. • 3 μl of diluted compound were transferred into Weidmann 384-well plate in duplicates side-by-side.
Compound plates were resuspended with 100 ul of HBSS/20 mM HEPES/0.005% BSA buffer (Compound Buffer):
Growth media was removed from the cell plates (20 ul) and 20 ul of the Replacement Buffer was added followed by addition of 25 ul of diluted dye. All three steps were performed using a Plate Washer BioTek 407. The plates were then incubated for 30′ at RT.
After incubation, both the cell and compound plates were brought to the FLIPR and 20 ul of the diluted compounds/antagonist/bk were transferred to the cell plates by the FLIPR. Plates were then incubated for 30′ at room temperature. After 30′ incubation, plates were returned to the FLIPR and 20 ul of 4.5× Cinnamaldehyde was added to the cell plates. During the compound addition as well as agonist addition, fluorescence readings were taken simultaneously from all 384 wells of the cell plate every 1.5 seconds. Five readings were taken to establish a stable baseline, then 20 ul of sample was rapidly (30 ul/sec) and simultaneously added to each well of the cell plate. The fluorescence was continuously monitored before, during and after sample/agonist addition for a total elapsed time of 100 seconds (compound addition) and 120 seconds (agonist addition). Responses (increase in peak fluorescence) in each well following agonist addition was determined. The initial fluorescence reading from each well, prior to ligand stimulation, was used a zero baseline value for the data from that well.

SMILES	IC50 [nM]
O=C(Nc1ccc(Cl)cc1)O[C@@H](CN1CCCC(Oc2cccc(OC(F)(F)F)c2)C1)C(F)(F)F (stereo partly drawn) [Example 50, (4-Chlorophenyl)-carbamic acid (S)-2,2,2-trifluoro-1-[3-(3-trifluoromethoxyphenoxyl)piperidin-1-ylmethyl]-ethyl ester hydrochloride]	55.1
O=C(Nc1ccc(Cl)cc1)O[C@@H](CN1CCCC(COc2ccc(F)cc2)C1)C(F)(F)F (stereo partly drawn) [Example 51, (4-Chlorophenyl)-carbamic acid (S)-2,2,2-trifluoro-1-[3-(4-fluorophenoxymethyl)-piperidin-1-ylmethyl]-ethyl ester hydrochloride]	178
O=C(Nc1ccc(Cl)cc1)O[C@@H](CN1CCC[C@H](Oc2ccc(Cl)cc2)C1)C(F)(F)F [Example 52a, (4-Chlorophenyl)-carbamic acid (S)-1-[(S)-3-(4-chlorophenoxy)-piperidin-1-ylmethyl]-2,2,2-trifluoroethyl ester hydrochloride]	114
O=C(Nc1ccc(Cl)cc1)O[C@@H](CN1CCC[C@@H](Oc2ccc(Cl)cc2)C1)C(F)(F)F [Example 52b, (4-Chlorophenyl)-carbamic acid (S)-1-[(R)-3-(4-chlorophenoxy)-piperidin-1-ylmethyl]-2,2,2-trifluoroethyl ester hydrochloride]	961
O=C(Nc1ccc(Cl)cc1)O[C@@H](CN1CCCC(c2ccccn2)C1)C(F)(F)F (stereo partly drawn) [Example 53, (4-Chlorophenyl)-carbamic acid (S)-2,2,2-trifluoro-1-(3′,4′,5′,6′-tetrahydro-2′H-[2,3′]bipyridinyl-1′-ylmethyl)-ethyl ester hydrochloride]	1920
N#Cc1ccnc(OC2CCCN(C[C@H](OC(=O)Nc3ccc(Cl)cc3)C(F)(F)F)C2)c1 (stereo partly drawn) [Example 54, (4-Chlorophenyl)-carbamic acid (S)-1-[3-(4-cyanopyridin-2-yloxy)-piperidin-1-ylmethyl]-2,2,2-trifluoroethyl ester hydrochloride]	596
O=C(Nc1ccc(Cl)cc1)O[C@@H](CN1CCCC(OCc2cccnc2)C1)C(F)(F)F (stereo partly drawn) [Example 55, (4-Chlorophenyl)-carbamic acid (S)-2,2,2-trifluoro-1-[3-(pyridin-3-ylmethoxy)-piperidin-1-ylmethyl]-ethyl ester hydrochloride]	803
O=C(Nc1ccc(Cl)cc1)O[C@@H](CN1CCCC(c2cccc(C(F)(F)F)n2)C1)C(F)(F)F (stereo partly drawn) [Example 56, (4-Chlorophenyl)-carbamic acid (S)-2,2,2-trifluoro-1-(6-trifluoromethyl-3′,4′,5′,6′-tetrahydro-2′H-[2,3′]bipyridinyl-1′-ylmethyl)-ethyl ester hydrochloride]	246
O=C(Nc1ccc(Cl)cc1)O[C@@H](CN1CCCC(c2ccc(C(F)(F)F)nc2)C1)C(F)(F)F (stereo partly drawn) [Example 57, (4-Chlorophenyl)-carbamic acid (S)-2,2,2-trifluoro-1-(6′-trifluoromethyl-3,4,5,6-tetrahydro-2H-[3,3′]bipyridinyl-1-ylmethyl)-ethyl ester hydrochloride]	342
O=C(Nc1ccc(Cl)cn1)O[C@@H](CN1CCC[C@H](c2cccc(C(F)(F)F)c2)C1)C(F)(F)F [Example 58, (5-Chloropyridin-2-yl)-carbamic acid (S)-2,2,2-trifluoro-1-[(R)-3-(3-trifluoromethyl-phenyl)-piperidin-1-ylmethyl]-ethyl ester hydrochloride]	174
O=C(Nc1ccc(Cl)cn1)O[C@@H](CN1CCCC(c2cccc(C(F)(F)F)c2)C1)C(F)(F)F (stereo partly drawn) [Example 59, (5-Chloropyridin-2-yl)-carbamic acid (S)-2,2,2-trifluoro-1-[3-(3-trifluoromethylphenyl)-piperidin-1-ylmethyl]-ethyl ester hydrochloride]	270
COc1cccc(C2CCCN(C[C@H](OC(=O)Nc3ccc(Br)cc3)C(F)(F)F)C2)c1 (stereo partly drawn) [Example 60, (4-Bromophenyl)-carbamic acid (S)-2,2,2-trifluoro-1-[3-(3-methoxyphenyl)-piperidin-1-ylmethyl]-ethyl ester hydrochloride]	365
COc1cccc(C2CCCN(C[C@H](OC(=O)Nc3ccc(F)cc3)C(F)(F)F)C2)c1 (stereo partly drawn) [Example 61, (4-Fluorophenyl)-carbamic acid (S)-2,2,2-trifluoro-1-[3-(3-methoxyphenyl)-piperidin-1-ylmethyl]-ethyl ester hydrochloride]	273
CS(=O)(=O)c1cccc(C2CCCN(C[C@H](OC(=O)Nc3ccc(Cl)cc3)C(F)(F)F)C2)c1 (stereo partly drawn) [Example 62, (4-Chlorophenyl)-carbamic acid (S)-2,2,2-trifluoro-1-[3-(3-methanesulfonylphenyl)-piperidin-1-ylmethyl]-ethyl ester hydrochloride]	1160
CS(=O)(=O)c1cccc(C2CCCN(C[C@H](OC(=O)Nc3ccc(F)cc3)C(F)(F)F)C2)c1 (stereo partly drawn) [Example 63, (4-Fluorophenyl)-carbamic acid (S)-2,2,2-trifluoro-1-[3-(3-methanesulfonylphenyl)-piperidin-1-ylmethyl]-ethyl ester hydrochloride]	2910
O=C(Nc1ccc(Cl)cc1)O[C@@H](CN1CCC(Cc2ccccc2)C1)C(F)(F)F (stereo partly drawn) [Example 64, (4-Chlorophenyl)-carbamic acid (S)-1-(3-benzylpyrrolidin-1-ylmethyl)-2,2,2-trifluoro-ethyl ester]	4990
O=C(Nc1ccc(F)c(Cl)c1)O[C@@H](CN1CCCC(c2cccc(C(F)(F)F)c2)C1)C(F)(F)F (stereo partly drawn) [Example 65, (3-Chloro-4-fluoro-phenyl)-carbamic acid (S)-2,2,2-trifluoro-1-[3-(3-trifluoromethyl-phenyl)-piperidin-1-ylmethyl]-ethyl ester]	257
O=C(Nc1ccc(Cl)c(Cl)c1)O[C@@H](CN1CCCC(c2cccc(C(F)(F)F)c2)C1)C(F)(F)F (stereo partly drawn) [Example 66, (3,4-Dichlorophenyl)-carbamic acid(S)-2,2,2-trifluoro-1-[3-(3-trifluoromethyl-phenyl)piperidin-1-ylmethyl]-ethyl ester]	200
O=C(Nc1ccc(F)c(F)c1)O[C@@H](CN1CCCC(c2cccc(C(F)(F)F)c2)C1)C(F)(F)F (stereo partly drawn) [Example 67, (3,4-Difluorophenyl)-carbamic acid (S)-2,2,2-trifluoro-1-[3-(3-trifluoromethylphenyl)piperidin-1-ylmethyl]-ethyl ester]	177
O=C(Nc1ccc(Cl)nc1)O[C@@H](CN1CCCC(c2cccc(C(F)(F)F)c2)C1)C(F)(F)F (stereo partly drawn) [Example 68, (6-Chloropyridin-3-yl)-carbamic acid (S)-2,2,2-trifluoro-1-[3-(3-trifluoromethylphenyl)-piperidin-1-ylmethyl]-ethyl ester]	192
